This is an account of results in publication PMC10487310, “Enzyme‐responsive macrocyclic metal complexes for biomedical imaging” (Bioengineering & Translational Medicine, 2022).

Like-named read-outs stand apart in the source and are kept apart here. Ends that are not written are not given here.

The subject of data set [1] is SCC7 tumor. Description: In vivo PET/CT imaging of tumor-bearing mice. As to the method:
(§1) Five‐week‐old Balb/c or athymic nude mice (Raon Bio, Yongin, Republic of Korea) were used for in vivo experiments. All studies using animals conformed to the Guidelines for the Care and Use of Laboratory Animals of the Institute of Laboratory Animal Resources at Seoul National University (approved animal experimental protocol number, SNU‐190821‐5).
(§2) The biodistribution of macrocyclam derivatives was determined by MRI and positron emission tomography/computed tomography (PET/CT) scanning. Five‐week‐old female Balb/c nude mice were subcutaneously inoculated with 1 × 10^6 SCC7 cells on the dorsal left side. When tumor volumes reached 150 mm^3, samples were intravenously administered. For in vivo MRI, Gd@NrMC or Gd@ErMC was injected at a Gd dose of 0.7 mg/kg. The mice were monitored in vivo at different time points using an MRI scanner (Bruker‐Biospin) equipped with an animal‐imaging coil. For PET/CT imaging, ^64Cu@NrMC or ^64Cu@ErMC was injected at a ^64Cu dose of approximately 240 μCi/mouse, and the mice were monitored in vivo at different time point using a PET/CT scanner (Inveon microPET/CT scanner, Siemens Medical Solutions, Malvern, PA, USA).

Data set [2] in a line: Copper-64 chloride loading, radioactivity by dose calibrator. Format: physicochemical. Conditions: sodium acetate buffer pH 5.0, 2 h at 80°C. The procedure: (§3) Metal ions are complexed with macrocyclam derivatives in acidic condition (Figure 2c). The lyophilized macrocyclam derivatives were dissolved in distilled water. A 100 nmol aliquot of NrMC or ErMC was mixed with gadolinium chloride (Sigma‐Aldrich) or radioactive copper‐64 chloride in sodium acetate buffer (pH 5.0) and incubated for 2 h at 80°C. Unloaded Gd was removed using a PD‐SpinTrap™ G‐25 column (GE Healthcare, Little Chalfont, UK). The loading amount of Gd in each sample was measured by inductively coupled plasma mass spectrometry (ICP‐MS, Varian 820‐MS; Varian, Palo Alto, CA, USA). Gd chelation consists of a reaction between the Gd^3+ and arsenazo III dye under acidic conditions to form a blue–purple complex. Radioactivity was measured using a dose calibrator (Biodex Medical Systems, Shirley, NY, USA).

The subject of data set [3] is 3T3‐L1 cells. Description: MTT cell viability. The format is cell-based. The following applies: 3T3 cells, 24 h treatment. As to the method: The viability of cells treated with macrocyclam derivatives was assessed by MTT and apoptosis detection assays, and by live/dead cell staining. The 3T3‐L1 cells were seeded onto 24‐well plates at a density of 1 × 10^5 cells per well for 24 h and the cells were treated with macrocyclam derivatives for 24 h. MTT (3‐(4,5‐dimethylthiazol‐2‐yl)‐2,5‐diphenyltetrazolium bromide) solution (final concentration, 500 μM) was added to each well and the cells incubated for 2 h. After aspiration of medium, the cells were dissolved in 200 μl dimethyl sulfoxide (DMSO; Sigma‐Aldrich). Formazan crystals generated by metabolically active cells were quantified by measuring optical density at 570 nm using a microplate reader (Tecan Group Ltd., Seestrasse, Mannedorf, Switzerland). Cell viability was analyzed by calculating the percent optical density of treated cells relative to control cells. Live and dead cell populations were determined using EZ‐view Live/Dead Cell Staining Kits (Biomax, Seoul, Republic of Korea). […] The absorbance of each well was measured at 490/545 nm using fluorescence microscopy (IX70; Olympus, Japan). Cell apoptosis was analyzed using a FACSCalibur flow cytometer (BD Biosciences, CA, USA) with annexin V staining. […] Cell surface expression was analyzed using a FACSCalibur flow cytometer (BD Biosciences), with the results analyzed using FlowJo software (BD Biosciences).

Data set [4] concerns SCC7 tumor. Format: in vivo, mice. The following applies: for tumor/normal tissue (TN) ratio: Gd 0.7 mg/kg, T1-weighted signal intensity. As to the method: as §1, §2
The nature of data set [5]: Hydrodynamic size by dynamic light scattering. The format is physicochemical. The procedure:
(§4) The size, zeta potential, and morphology of each macrocyclam derivative were determined. Size was measured using dynamic light scattering, and zeta potential was assessed by laser Doppler microelectrophoresis at an angle of 22°, with both size and zeta potential being measured using an ELS8000 instrument (Photal, Osaka, Japan). The relaxation times of Gd‐loaded materials were examined using a 7 T/20 MRI instrument (Bruker‐Biospin, Ettlingen, Germany) at 37°C. Each sample was serially diluted to Gd concentrations of 37, 75, 150, and 300 μM, and the T1‐weighted MR signal intensities of 200‐μl samples were determined. The relaxation rate, r1 (r1 = 1/T1), for each preparation was calculated from acquired images.

Data set [6] in a line: Size stability of nanostructure in TDW, PBS or 10% serum. The format is physicochemical. Conditions: size measured in TDW, PBS or 10% serum (Figure S1). As to the method: Fig. S1. Serum stability of macrocyclic complex
Size of ErMC was measured in TDW, PBS, or 10% serum condition.

Data set [7] in a line: Gd loading of macrocyclam derivatives by ICP-MS. The following applies: gadolinium chloride in sodium acetate buffer pH 5.0, 2 h at 80°C, unloaded Gd removed on G-25 column. Format: physicochemical. As to the method: as §3
Data set [8] concerns 3T3‐L1 cells. Description: Enzyme-dependent cellular uptake of Gd by ICP-MS, MMP-spiked versus blank media. Format: cell-based. The following applies: 3T3-L1 cells pretreated with MMP-9, ICP-MS. As to the method:
(§5) Cellular uptake was assessed by in vitro MR imaging, ICP‐MS, and scanning electron microscopy combined with energy‐dispersive x‐ray spectroscopy (SEM/EDS) analysis. For in vitro MR imaging, murine squamous cell carcinoma SCC7 cells were seeded onto six‐well plates at a density of 3 × 10^5 cells per well. After 24 h, the cells were treated with Gadovist or macrocyclam derivatives at Gd concentrations of 100 μM for 24 h. MR images were obtained and analyzed using an MRI scanner (Bruker‐Biospin). To assess enzyme‐dependent cellular uptake, 3T3‐L1 cells were pretreated with various concentrations of MMP‐9 (Sigma‐Aldrich). For ICP‐MS analysis, the cells were washed and completely dissolved with 90% nitric acid (Sigma‐Aldrich). To quantify Gd taken up by cells, the dissolved cells were digested with 1 ml of aqua regia (HCl: HNO3 = 3: 1, m/m) at 130°C. The solutions were completely dried and redissolved in deionized water, and the amounts of Gd were measured by ICP‐MS (Varian 820‐MS). For SEM/EDS analysis, SCC7 cells were seeded in cover glass‐inserted 24‐well plates at a density of 2 × 10^5 cells per well, followed by treatment of the samples for 24 h. A field‐emission SEM system (Supra 55VP; Carl Zeiss, Oberkochen, Germany) was used for SEM imaging combined with EDS mapping.

Data set [9] has as its system SCC7 cells. The experiment in a line: Cellular uptake, in vitro T1 MR imaging. Format: cell-based, murine. Conditions: Gd 100 μM, 24 h. The procedure:
as §5

In data set [10] the test system is SCC7 cells. Description: SEM/EDS elemental mapping of treated cells. The format is cell-based, murine. Conditions: 24 h. As to the method: as §5
Data set [11] can be described thus: In vivo safety, H&E histology of major organs. The following applies: Balb/c mice, intravenous, Gd 3.5 mg/kg, 1 week, n = 4 per group. As to the method:
(§6) The in vivo safety of macrocyclam derivatives was determined by histological and serological analyses. Five‐week‐old Balb/c mice were intravenously administered with at Gd@NrMC or Gd@ErMC at a Gd dose of 3.5 mg/kg. Briefly, NrMC (470 nmol) or ErMC (650 nmol) was mixed with gadolinium chloride in sodium acetate buffer (pH 5.0) and incubated for 2 h at 80°C. Unloaded Gd was removed using a PD‐SpinTrap™ G‐25 column. The samples including 70 μg of Gd were intravenously administered to mice. After 1 week, animals (n = 4 per group) were euthanized, and their organs (heart, lung, liver, spleen, and kidney) and sera were collected for histopathological and biochemical evaluation. Extracted organs were fixed in 10% formalin solution for 24 h and embedded in paraffin. For hematoxylin and eosin staining, each organ section was immersed in filtered Harris hematoxylin for 10 s and then in eosin for 30 s. The stained slides were visualized using a Vectra 3.0 Automated Quantitative Pathology Imaging System (PerkinElmer, Hopkinton, MA, USA), and the images were analyzed using InForm v2.4.11. software (PerkinElmer). The serum concentrations of alanine aminotransferase (ALT), aspartate aminotransferase (AST), […] (ALP), blood urea nitrogen (BUN), and total bilirubin (TBIL) were measured using an automatic chemistry analyzer (DRI‐CEHM 3500s; Fujifilm, Kanagawa, Japan).

The subject of data set [12] is SCC7 cells. The experiment in a line: Cellular uptake of Gd by ICP-MS. The format is cell-based, murine. The following applies: Gd 100 μM, 24 h. As to the method:
as §5

Data set [13] is described as follows: In vivo safety, serum biochemistry (ALT, AST, ALP, BUN, TBIL). The following applies: Balb/c mice, Gd 3.5 mg/kg, 1 week after injection, compared with untreated mice. The procedure:
as §6

The nature of another data set: T1 relaxivity, 7 T MRI. Format: physicochemical. The following applies: 37°C, Gd 37, 75, 150 and 300 μM. The procedure:
as §4

Data set [14] is described as follows: Zeta potential by laser Doppler microelectrophoresis. Format: physicochemical. The procedure:
as §4

Turning to GGPLGVRGGGGG-OH [^64Cu@ErMC], the “percentage of injected 64Cu in tumors relative to 64Cu@NrMC-treated mice” value in the data set on SCC7 tumor [1] (24 h post-dose) came to 2.9 fold; with SCC7 tumor [1] (48 h post-dose) it was 2 fold. Besides, in the data set with SCC7 tumor [1] (intravenous, approximately 240 μCi/mouse, SCC7 tumor-bearing mice), the “PET signal in tumor tissue” value is “enhanced signals”. Moreover, the “copper-64 chloride loading capacity” value in [2] was determined as 22.4%.

`O=C([O-])CN1CCN(CC(=O)[O-])CCN([C@H](CO)[C@H](O)CO)CCN(CC(=O)[O-])CC1.[Gd+3]` (racemic) [Gadovist, reference compound]: in the data set with 3T3‐L1 cells [3], the “viability of cells (MTT)” value is listed as “no effect”. In the data set on SCC7 tumor [4] (1 h to 24 h after intravenous injection), the “change of tumor/normal tissue (TN) ratio over time” value was “not enhanced over time”.

“GGPLGVRGGGGG-OH [Gd@ErMC, Gd loaded into enzyme-responsive macrocyclam modified with a PEGylated MMP-cleavable peptide; self-assembled nanoparticles]”: the hydrodynamic size in [5] is reported as 310.2 ± 50.2 nm. Besides, the “nanostructure in physiological conditions” value in data set [6] was “maintained”. For the same compound, the gadolinium loading capacity in data set [7] is recorded as 29.3 ± 14.5 mol%. In the data set with 3T3‐L1 cells [8], the “Gd accumulation in cells treated with MMP relative to blank media” value came out at 7.2 fold. Moreover, the “T1 MRI signal of MMP-overexpressing cells” value in the data set with SCC7 cells [9] is listed as “higher for the Gd@ErMC group than for other groups”. Also, in the data set with SCC7 cells [10], the “colocalization of Gd on the cell surface (EDS-SEM)” value is “bound to cell membranes”. Also, the “histology of heart, lungs, liver, spleen and kidneys” value in data set [11] is “no visible microscopically abnormal features”. In addition, the “intracellular Gd concentration relative to Gd@NrMC-treated cells” value in the data set on SCC7 cells [12] is 32.2 fold. For the same compound, the “liver and kidney function enzyme levels in blood” value in [13] is “within normal range”. In addition, the “tumor/normal tissue (TN) ratio” value turned out to be 1.8 in the data set on SCC7 tumor [4] (1 h after intravenous injection) and 3.4 in the data set with SCC7 tumor [4] (24 h after intravenous injection). Moreover, the “longevity relaxivity (r1)” value in “T1 relaxivity, 7 T MRI” is 33.4 mM⁻¹ s⁻¹. Besides, in data set [14], the zeta potential entry is “slightly positive”.
